Experimental data from patent publication US9701676B2, “Pro-neurogenic compounds” (Board of Regents of The University of Texas System, priority 2012, dated 2017).

Test system: proliferating neural precursor cells in the hippocampus (subgranular layer of the dentate gyrus)
Test: standard in vivo hippocampal neurogenesis assay (BrdU labelling, week-long intracranial mini-pump infusion)
Parameters: species or system mouse (C57/B6)
Details: 10 μM concentration, seven days of infusion at 0.5 μL/hour, daily IP BrdU; four 12 week old adult male C57/B6 mice; vehicle 14.5
Description: Compounds were administered at a concentration of 10 μM for each molecule. After seven days of infusion at a constant rate of 0.5 μL/hour, a total of 84 μL of volume will have left the pump (0.00084 μMoles) and entered the cerebrospinal fluid. The average volume of a brain from a 12 week old male, C57/B6 mouse in the study is 500 mm^3. […] Under these conditions, at the end of one week of infusion each compound would be present at 1.7 μMolar concentration. Since the actual amount of chemical compound in the brain is likely to be only a fraction of this predicted level, it is reasonable to estimate that compounds were administered at mid to low-nanomolar concentrations.
During compound infusion, animals were intraperitoneally (IP) injected daily with the thymidine analog, bromodeoxyuridine (BrdU), as a means of scoring the birth and survival of proliferating neural precursor cells in the hippocampus. Because both social interaction and voluntary exercise are known to stimulate hippocampal neurogenesis, mice were housed individually without access to running wheels throughout the screening period. Following the week-long period of compound administration, animals were perfused and sacrificed. Dissected brain tissue was fixed, embedded, sectioned, stained with antibodies to BrdU, and evaluated by light microcopy as a means of quantifying neurogenesis and survival of newborn neural precursor cells localized to the subgranular layer of the dentate gyms on the brain hemisphere contralateral to the side of mini-pump cannulation. Every fifth section throughout the entire rostral-caudal extent of the hippocampus was analyzed, and the total number of BrdU+ cells was normalized against the measured volume of the dentate gyms.
Intracranial infusions of either fibroblast growth factor 2 (FGF-2) or artificial cerebral spinal fluid (aCSF) vehicle via the same, week-long protocol were employed as positive and negative controls.
Compounds were evaluated for pro-neurogenic efficacy/neuroprotection in a standard in vivo hippocampal neurogenesis assay at 10 μM concentration in four 12 week old adult male C57/B16 mice.

Row | Molecule | (×10^−06) BrdU+ cells/mm^3 dentate gyrus
1 | N#CCn1c2ccc(Br)cc2c2cc(Br)ccc21 [P7C3-S235, 2-(3,6-dibromo-9H-carbazol-9-yl)acetonitrile] | 23.4 (×10^−06) BrdU+ cells/mm^3
2 | Cc1ccc2[nH]c3ccc(C)cc3c2c1 [P7C3-S237, 3,6-dimethyl-9H-carbazole] | 23.5 (×10^−06) BrdU+ cells/mm^3
3 | NC(=O)c1ccc2c(c1)c1cc(Br)ccc1n2CC(=O)O [P7C3-S238, 2-(3-bromo-6-carbamoyl-9H-carbazol-9-yl)acetic acid] | 18.8 (×10^−06) BrdU+ cells/mm^3
4 | O=C(O)Cn1c2ccc(Br)cc2c2cc(C(=O)O)ccc21 [P7C3-S239, 6-bromo-9-(carboxymethyl)-9H-carbazole-3-carboxylic acid] | 22.8 (×10^−06) BrdU+ cells/mm^3
5 | Cc1ccc2c(c1)c1cc(Br)ccc1n2CC(=O)O [P7C3-S240, 2-(3-bromo-6-methyl-9H-carbazol-9-yl)acetic acid] | 28.5 (×10^−06) BrdU+ cells/mm^3
6 | O=C(O)CCc1c[nH]c2ccccc12 [P7C3-S242, 3-indolepropionic acid, reference compound] | 21.5 (×10^−06) BrdU+ cells/mm^3
7 | CN(C)c1nc(O)c2[nH]c3ccccc3c2n1 [P7C3-S245, 2-(dimethylamino)-5H-pyrimido[5,4-b]indol-4-ol] | 32.4 (×10^−06) BrdU+ cells/mm^3
8 | CCOC(=O)c1ncc2c(n1)c1ccccc1n2S(=O)(=O)c1ccc(C)cc1 [P7C3-S246, ethyl 5-tosyl-5H-pyrimido[5,4-b]indole-2-carboxylate] | 29 (×10^−06) BrdU+ cells/mm^3
9 | CCOC(=O)C1=NCc2c(c3ccccc3n2S(=O)(=O)c2ccc(C)cc2)N1 [P7C3-S247, ethyl 5-tosyl-4,5-dihydro-1H-pyrimido[5,4-b]indole-2-carboxylate] | 31.1 (×10^−06) BrdU+ cells/mm^3
10 | N[C@@H](Cc1c[nH]c2ccccc12)C(=O)O [P7C3-S248, L-tryptophan, reference compound] | 20.1 (×10^−06) BrdU+ cells/mm^3
11 | N[C@@H](Cc1c[nH]c2ccc(O)cc12)C(=O)O [P7C3-S249, L-5-hydroxy-tryptophan, reference compound] | 34.8 (×10^−06) BrdU+ cells/mm^3
12 | COc1cccc(N(CC(O)Cn2c3ccc(Br)cc3c3cc(Br)ccc32)S(C)(=O)=O)c1 (stereo not shown) [P7C3-S251, N-(3-(3,6-dibromo-9H-carbazol-9-yl)-2-hydroxypropyl)-N-(3-methoxyphenyl)methanesulfonamide] | 17.7 (×10^−06) BrdU+ cells/mm^3
13 | COc1cccc(N(CC(O)Cn2c3ccc(Br)cc3c3cc(Br)ccc32)S(=O)(=O)c2ccccc2)c1 (stereo not shown) [P7C3-S252, N-(3-(3,6-dibromo-9H-carbazol-9-yl)-2-hydroxypropyl)-N-(3-methoxyphenyl)benzenesulfonamide] | 33.2 (×10^−06) BrdU+ cells/mm^3
14 | COc1cccc(N(CC(O)Cn2c3ccc(Br)cc3c3cc(Br)ccc32)S(=O)(=O)c2ccccc2C(F)(F)F)c1 (stereo not shown) [P7C3-S253, N-(3-(3,6-dibromo-9H-carbazol-9-yl)-2-hydroxypropyl)-N-(3-methoxyphenyl)-2-(trifluoromethyl)benzenesulfonamide] | 28.5 (×10^−06) BrdU+ cells/mm^3
15 | COc1ccc(S(=O)(=O)N(CC(O)Cn2c3ccc(Br)cc3c3cc(Br)ccc32)c2cccc(OC)c2)cc1 (stereo not shown) [P7C3-S254, N-(3-(3,6-dibromo-9H-carbazol-9-yl)-2-hydroxypropyl)-4-methoxy-N-(3-methoxyphenyl)benzenesulfonamide] | 25.5 (×10^−06) BrdU+ cells/mm^3
16 | COc1cccc(N(CC(F)Cn2c3ccc(Br)cc3c3cc(Br)ccc32)S(C)(=O)=O)c1 (stereo not shown) [P7C3-S256, N-(3-(3,6-dibromo-9H-carbazol-9-yl)-2-fluoropropyl)-N-(3-methoxyphenyl)methanesulfonamide] | 31.5 (×10^−06) BrdU+ cells/mm^3

Row | Molecule | (×10^−06) BrdU+ cells/mm^3 dentate gyrus
17 | COc1cccc(N(CC(F)Cn2c3ccc(Br)cc3c3cc(Br)ccc32)S(=O)(=O)c2ccccc2C(F)(F)F)c1 (stereo not shown) [P7C3-S257, N-(3-(3,6-dibromo-9H-carbazol-9-yl)-2-fluoropropyl)-N-(3-methoxyphenyl)-2-(trifluoromethyl)benzenesulfonamide] | 29.4 (×10^−06) BrdU+ cells/mm^3
18 | COc1ccc(S(=O)(=O)N(CC(F)Cn2c3ccc(Br)cc3c3cc(Br)ccc32)c2cccc(OC)c2)cc1 (stereo not shown) [P7C3-S258, N-(3-(3,6-dibromo-9H-carbazol-9-yl)-2-fluoropropyl)-4-methoxy-N-(3-methoxyphenyl)benzenesulfonamide] | 29.8 (×10^−06) BrdU+ cells/mm^3
19 | CCOC(=O)c1ncc2[nH]c3ccccc3c2n1 [P7C3-S262, ethyl 5H-pyrimido[5,4-b]indole-2-carboxylate] | 18 (×10^−06) BrdU+ cells/mm^3
20 | O=S(=O)(NCC(O)Cn1c2ccc(Br)cc2c2cc(Br)ccc21)C(F)(F)F (stereo not shown) [P7C3-S264, N-(3-(3,6-dibromo-9H-carbazol-9-yl)-2-hydroxypropyl)-1,1,1-trifluoromethanesulfonamide] | 20.6 (×10^−06) BrdU+ cells/mm^3
21 | CCCN(CCC)C(=O)Cc1c(-c2ccc(Cl)cc2)nc2ccc(Cl)cn12 [P7C3-S265, 6-Chloro-2-(4-chlorophenyl)-N,N-dipropyl-imidazo[1,2-a]pyridine-3-acetamide, reference compound] | 29.3 (×10^−06) BrdU+ cells/mm^3
22 | CC(C)CCC[C@@H](C)[C@H]1CC[C@H]2[C@@H]3CCC4=CC(=NO)CC[C@]4(C)[C@H]3CC[C@]12C [P7C3-S266, Cholest-4-en-3-one, oxime, reference compound] | 42.3 (×10^−06) BrdU+ cells/mm^3
23 | Cc1c(C)c2c(c(C)c1O)CC[C@@](C)(CCC[C@H](C)CCC[C@H](C)CCCC(C)C)O2 [P7C3-S267, (+)-a-tocopherol, reference compound] | 21.4 (×10^−06) BrdU+ cells/mm^3
24 | N#Cc1[nH]c2ccccc2c1N [P7C3-S268, 3-amino-1H-indole-2-carbonitrile] | 32.1 (×10^−06) BrdU+ cells/mm^3
25 | O=c1[nH]c(=O)c2[nH]c3ccc(Br)cc3c2[nH]1 [P7C3-S269, 8-bromo-1H-pyrimido[5,4-b]indole-2,4(3H, 5H)-dione] | 35.4 (×10^−06) BrdU+ cells/mm^3
26 | CN(C)c1nc(O)c2[nH]c3ccc(Br)cc3c2n1 [P7C3-S270, 8-bromo-2-(dimethylamino)-5H-pyrimido[5,4-b]indol-4-ol] | 28 (×10^−06) BrdU+ cells/mm^3
27 | COc1nc(N(C)C)nc2c3cc(Br)ccc3n(C)c12 [P7C3-S275, 8-bromo-4-methoxy-N,N,5-trimethyl-5H-pyrimido[5,4-b]indol-2-amine] | 20.5 (×10^−06) BrdU+ cells/mm^3
28 | COc1ccc2[nH]c(C#N)c(N)c2c1 [P7C3-S276, 3-amino-5-methoxy-1H-indole-2-carbonitrile] | 29.3 (×10^−06) BrdU+ cells/mm^3
29 | O=C(NCC(O)Cn1c2ccc(Br)cc2c2cc(Br)ccc21)Nc1ccccc1 (stereo not shown) [P7C3-S277, 1-(3-(3,6-dibromo-9H-carbazol-9-yl)-2-hydroxypropyl)-3-phenylurea] | 20.3 (×10^−06) BrdU+ cells/mm^3
30 | Cc1ccc2c(c1)c1cc(Br)ccc1n2C [P7C3-S280, 3-bromo-6,9-dimethyl-9H-carbazole] | 25.1 (×10^−06) BrdU+ cells/mm^3
31 | FGF-2: fibroblast growth factor 2, intracranial infusion employed as positive control | 28.4 (×10^−06) BrdU+ cells/mm^3
